Consider 46 compounds from patent US12221453B2, “Substituted pyrazolo[5′,1′:2,3]pyrimido[5,4-b][1,4]oxazines as TYK2 inhibitors” (TAKEDA PHARMACEUTICAL COMPANY LIMITED, priority 2018, dated 2025).

One may read the IC50 as the concentration needed to halve the response being measured.

Some results are limits rather than exact numbers.

The assay relates to IL-12 induced STAT4 phosphorylation mediated by TYK2/JAK2. The assay can be described thus: IL-12 induced pSTAT4 in human PBMC. Format: cell-based. The settings on record: 1 hr compound, 1.7 ng/mL IL-12 for 30 minutes. In a few lines:
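Thawed human PBMC were pre-incubated with compound for 1 hr at 37 °C (0.1% DMSO), then stimulated with 1.7 ng/mL IL-12 for 30 minutes. Phospho-STAT4 and total STAT4 were measured in cell lysates by MSD.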

`CNc1cc(-c2cnc3n([C@H]4COC[C@@H]4OC)cccc2-3)nc2c(C(=O)NC3CC[C@H]3F)cnn12` (stereo partly shown) [Compound I-838] yielded an IC50 of less than 0.1 µM.

Turning to `CNc1cc(-c2cnc3n([C@H]4COC[C@@H]4OC)cccc2-3)nc2c(C(=O)N[C@H]3CC[C@H]3F)cnn12` [Compound I-839], the IC50 was less than 0.1 µM.

Take `CNc1cc(-c2cnc3n([C@H]4COC[C@@H]4OC)cccc2-3)nc2c(C(=O)N[C@@H]3CC[C@@H]3F)cnn12` [Compound I-840]: the half-maximal inhibitory concentration (IC50) was less than 0.1 µM.

Compound `CNc1cc(-c2cnc3n([C@@H]4COC[C@H]4OC)cccc2-3)nc2c(C(=O)NC3CC[C@H]3F)cnn12` (stereo partly shown) [Compound I-841] registered an IC50 of less than 0.1 µM.

`CNc1cc(-c2cnc3n([C@@H]4CCOC[C@H]4O)cccc2-3)nc2c(C(=O)N[C@H]3CC[C@@H]3F)cnn12` [Compound I-848] returned an IC50 of less than 0.1 µM.

Turning to `CNc1cc(-c2cnc3n([C@@H]4COC[C@H]4O)cccc2-3)nc2c(C(=O)N[C@@H]3CC[C@H]3OC)cnn12` [Compound I-876], the IC50 is less than 0.1 µM.

On to `CNc1cc(-c2cnc3n([C@H]4COC[C@@H]4O)cccc2-3)nc2c(C(=O)N[C@@H]3CC[C@H]3OC)cnn12` [Compound I-878], for which the half-maximal inhibitory concentration (IC50) is less than 0.1 µM.

On to `CNc1cc(-c2cnc3n([C@H]4COC[C@@H]4OC)cccc2-3)nc2c(C(=O)NC3CC[C@@H]3OC)cnn12` (stereo partly shown) [Compound I-880], for which the IC50 was less than 0.1 µM.

Compound `CNc1cc(-c2cnc3n([C@H]4COC[C@@H]4OC)cccc2-3)nc2c(C(=O)N[C@@H]3CC[C@H]3OC)cnn12` [Compound I-881] came in with an IC50 of less than 0.1 µM.

The compound `CNc1cc(-c2cnc3n([C@@H]4COC[C@H]4OC)cccc2-3)nc2c(C(=O)NC3CC[C@@H]3OC)cnn12` (stereo partly shown) [Compound I-883] gave an IC50 of less than 0.1 µM.

In the case of `CNc1cc(-c2cnc3n([C@@H]4COC[C@H]4OC)cccc2-3)nc2c(C(=O)N[C@@H]3CC[C@H]3OC)cnn12` [Compound I-884], the IC50 is less than 0.1 µM.

On to `CNc1cc(-c2cnc3n([C@@H]4CCOC[C@H]4OC)cccc2-3)nc2c(C(=O)N[C@@H]3CC[C@H]3OC)cnn12` [Compound I-896], for which the IC50 is less than 0.1 µM.

Regarding `CNc1cc(-c2cnc3n([C@H]4COC[C@@H]4O)cccc2-3)nc2c(C(=O)NC3CCC3(F)F)cnn12` (stereo partly shown) [Compound I-898], the IC50 is less than 0.1 µM.

The compound `CNc1cc(-c2cnc3n([C@@H]4COC[C@H]4O)cccc2-3)nc2c(C(=O)NC3CCC3(F)F)cnn12` (stereo partly shown) [Compound I-901] registered an IC50 of less than 0.1 µM.

For the compound `CNc1cc(-c2cnc3n([C@@H]4COC[C@H]4O)cccc2-3)nc2c(C(=O)N[C@H]3CCC3(F)F)cnn12` [Compound I-902], the IC50 was less than 0.1 µM.

As to `CNc1cc(-c2cn([C@H]3C[C@@H](COC)C3)c3ncccc23)nc2c(C(=O)NC3CC[C@H]3O)cnn12` (stereo partly shown) [Compound I-912], the IC50 is less than 0.1 µM.

As to `CNc1cc(-c2cn([C@H]3C[C@@H](COC)C3)c3ncccc23)nc2c(C(=O)N[C@@H]3CC[C@@H]3O)cnn12` [Compound I-914], the IC50 is less than 0.1 µM.

Regarding `CNc1cc(-c2cn([C@H]3[C@@H]4COC[C@@H]43)c3ncccc23)nc2c(C(=O)N[C@H]3CC[C@@H]3O)cnn12` [Compound I-915], the half-maximal inhibitory concentration (IC50) is less than 0.1 µM.

The compound `CNc1cc(-c2cn([C@@H]3CCOC[C@H]3F)c3ncccc23)nc2c(C(=O)N[C@H]3CC[C@H]3O)cnn12` [Compound I-918] showed an IC50 of less than 0.1 µM.

For `CNc1cc(-c2cn(CC(=O)N(C)C)c3ncccc23)nc2c(C(=O)N[C@H]3CC[C@@H]3OC)cnn12` [Compound I-921], the IC50 is less than 0.1 µM.

As to `CNc1cc(-c2cn(CCOC)c3ncccc23)nc2c(C(=O)N[C@H]3CC[C@@H]3OC)cnn12` [Compound I-923], the IC50 is less than 0.1 µM.

Compound `CNc1cc(-c2cn([C@H]3C[C@@H](COC)C3)c3ncccc23)nc2c(C(=O)N[C@H]3CC[C@@H]3OC)cnn12` [Compound I-933] came in with an IC50 of less than 0.1 µM.

For the compound `CNc1cc(-c2cnc3n([C@@H]4CN(C)C[C@H]4OC)cccc2-3)nc2c(C(=O)NC3CC[C@@H]3OC)cnn12` (stereo partly shown) [Compound I-943], the IC50 is less than 0.1 µM.

Consider `CNc1cc(-c2cnc3n([C@@H]4CN(C)C[C@H]4OC)cccc2-3)nc2c(C(=O)N[C@H]3CC[C@@H]3OC)cnn12` [Compound I-944], for which the IC50 was less than 0.1 µM.

In the case of `CNc1cc(-c2cnc3n([C@H]4CN(C)C[C@@H]4OC)cccc2-3)nc2c(C(=O)N[C@H]3CC[C@@H]3OC)cnn12` [Compound I-947], the IC50 was less than 0.1 µM.

For the compound `CNc1cc(-c2cn(CC(=O)N3CCCC3)c3ncccc23)nc2c(C(=O)N[C@H]3CC[C@@H]3OC)cnn12` [Compound I-965], the concentration for half-maximal inhibition (IC50) was less than 0.1 µM.

`CNc1cc(-c2cnc3n(CC(=O)N4CCC4)cccc2-3)nc2c(C(=O)N[C@H]3CC[C@@H]3OC)cnn12` [Compound I-977] returned a 50% inhibitory concentration (IC50) greater than 1 µM.

Turning to `CNc1cc(-c2cnc3n(CC(C)(C)O)cccc2-3)nc2c(C(=O)N[C@H]3CC[C@@H]3OC)cnn12` [Compound I-983], the IC50 is less than 0.1 µM.

`CNc1cc(-c2cnc3n(CCCN4CCOCC4)cccc2-3)nc2c(C(=O)N[C@H]3CC[C@@H]3OC)cnn12` [Compound I-990]: the IC50 was less than 0.1 µM.

With `CNc1cc(-c2cn(C(C)C)c3nnccc23)nc2c(C(=O)NC3CC[C@@H]3OC)cnn12` (stereo partly shown) [Compound I-993], the IC50 is less than 0.1 µM.

The compound `CNc1cc(-c2cnc3n([C@@H]4CCOC4)cccc2-3)nc2c(C(=O)NC3CC[C@@H]3OC)cnn12` (stereo partly shown) [Compound I-995] displayed an IC50 of less than 0.1 µM.

Take `CNc1cc(-c2cnc3n([C@H]4CCOC4)cccc2-3)nc2c(C(=O)N[C@H]3CC[C@@H]3OC)cnn12` [Compound I-1002]: the IC50 is less than 0.1 µM.

As to `CNc1cc(-c2cnc3n([C@@H]4CCOC4)cccc2-3)nc2c(C(=O)N[C@H]3CC[C@@H]3OC)cnn12` [Compound I-1004], the IC50 was less than 0.1 µM.

Compound `CO[C@H]1CC[C@@H]1NC(=O)c1cnn2c(N)cc(-c3cnc4n([C@H]5COC[C@@H]5OC)cccc3-4)nc12` [Compound I-1006] registered an IC50 of less than 0.1 µM.

For the compound `CNc1cc(-c2cn(C(C)C)c3nnccc23)nc2c(C(=O)N[C@@H]3CC[C@H]3OC)cnn12` [Compound I-1009], the IC50 was less than 0.1 µM.

`CNc1cc(-c2cnc3n(CC(=O)N4CC5(COC5)C4)cccc2-3)nc2c(C(=O)N[C@H]3CC[C@@H]3OC)cnn12` [Compound I-1012] yielded an IC50 greater than 1 µM.

The compound `CNc1cc(-c2cnc3n(C4CCOCC4)cccc2-3)nc2c(C(=O)N[C@H]3CC[C@@H]3OC)cnn12` [Compound I-1014] displayed an IC50 of less than 0.1 µM.

`CNc1cc(-c2cn([C@H]3CC(=O)N(C)C3)c3ncccc23)nc2c(C(=O)N[C@H]3CC[C@@H]3OC)cnn12` [Compound I-1024] displayed an IC50 of less than 0.1 µM.

The compound `CNc1cc(Nc2cccn([C@H]3C[C@H](F)C3)c2=O)nc2c(C(=O)N[C@H]3CC[C@H]3O)cnn12` [I-16, 5-((1-((1r,3S)-3-Fluorocyclobutyl)-2-oxo-1,2-dihydropyridin-3-yl)amino)-N-((1S,2R)-2-hydroxycyclobutyl)-7-(methylamino)pyrazolo[1,5-a]pyrimidine-3-carboxamide] came in with an IC50 of less than 0.1 µM.

In the case of `CNc1cc(Nc2cccn([C@H]3[C@@H]4COC[C@@H]43)c2=O)nc2c(C(=O)N[C@@H]3C[C@H]3OC)cnn12` [I-25, 5-((1-((1R,5S,6r)-3-Oxabicyclo[3.1.0]hexan-6-yl)-2-oxo-1,2-dihydropyridin-3-yl)amino)-N-((1R,2R)-2-methoxycyclopropyl)-7-(methylamino)pyrazolo[1,5-a]pyrimidine-3-carboxamide], the concentration for half-maximal inhibition (IC50) is less than 0.1 µM.

The compound `CNc1cc(Nc2cccn([C@H]3CC[C@H](OC)CC3)c2=O)nc2c(C(=O)N[C@@H]3C[C@H]3OC)cnn12` [I-31, 5-((1-((1r,4R)-4-Methoxycyclohexyl)-2-oxo-1,2-dihydropyridin-3-yl)amino)-N-((1R,2R)-2-methoxycyclopropyl)-7-(methylamino)pyrazolo[1,5-a]pyrimidine-3-carboxamide] had an IC50 of less than 0.1 µM.

`CNc1cc(Nc2cccn([C@H]3CC[C@H](OC)CC3)c2=O)nc2c(C(=O)N[C@H]3C[C@@H]3OC)cnn12` [I-32, 5-((1-((1r,4S)-4-Methoxycyclohexyl)-2-oxo-1,2-dihydropyridin-3-yl)amino)-N-((1S,2S)-2-methoxycyclopropyl)-7-(methylamino)pyrazolo[1,5-a]pyrimidine-3-carboxamide] gave an IC50 of less than 0.1 µM.

As to `CNc1cc(Nc2cccn([C@@H]3C[C@H]3F)c2=O)nc2c(C(=O)N[C@@H]3CC[C@H]3OC)cnn12` [I-53, 5-((1-((1R,2R)-2-Fluorocyclopropyl)-2-oxo-1,2-dihydropyridin-3-yl)amino)-N-((1R,2R)-2-methoxycyclobutyl)-7-(methylamino)pyrazolo[1,5-a]pyrimidine-3-carboxamide], the IC50 was less than 0.1 µM.

Take `CNc1cc(Nc2cccn([C@H]3C[C@H](F)C3)c2=O)nc2c(C(=O)N[C@@H]3CC[C@H]3OC)cnn12` [I-57, 5-((1-((1r,3R)-3-Fluorocyclobutyl)-2-oxo-1,2-dihydropyridin-3-yl)amino)-N-((1R,2R)-2-methoxycyclobutyl)-7-(methylamino)pyrazolo[1,5-a]pyrimidine-3-carboxamide]: the IC50 was less than 0.1 µM.

In turn, `CNc1cc(-c2cn([C@H]3C[C@@H](O)C3)c3ncccc23)nc2c(C(=O)NC3CC[C@H]3O)cnn12` (stereo partly drawn) [I-111, N-((cis-1,2)-2-Hydroxycyclobutyl)-5-(1-((1s,3R)-3-hydroxycyclobutyl)-1H-pyrrolo[2,3-b]pyridin-3-yl)-7-(methylamino)pyrazolo[1,5-a]pyrimidine-3-carboxamide] returned a half-inhibitory concentration (IC50) of 0.1 to 0.5 µM.

`CNc1cc(-c2cn([C@H]3[C@@H]4COC[C@@H]43)c3ncccc23)nc2c(C(=O)N[C@H]3CC[C@@H]3OC)cnn12` [I-793, 5-(1-((1R,5S,6r)-3-oxabicyclo[3.1.0]hexan-6-yl)-1H-pyrrolo[2,3-b]pyridin-3-yl)-N-((1S,2S)-2-methoxycyclobutyl)-7-(methylamino)pyrazolo[1,5-a]pyrimidine-3-carboxamide]: the half-inhibitory concentration (IC50) is less than 0.1 µM.
